Data taken from PubChem BioAssay (NCI).
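Following 48 hours of exposure in 96-well plates, responses at five concentrations were used to interpolate endpoints linearly. Here, GI50 denotes the concentration required for 50% inhibition of growth. Definition used: TGI = concentration required for complete inhibition of growth.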

Experiments:
Assay in all cases: growth of human tumour cells (NCI), 48 h
A549 NSCLC = system: A549 NSCLC
COLO 205 colon = system: COLO 205 colon
HT29 colon = system: HT29 colon
NCI-H460 lung = system: NCI-H460 lung
NCI-H522 lung = system: NCI-H522 lung
OVCAR-5 ovarian = system: OVCAR-5 ovarian
SK-OV-3 ovarian = system: SK-OV-3 ovarian
SNB-19 CNS = system: SNB-19 CNS
SNB-78 CNS = system: SNB-78 CNS
U251 CNS = system: U251 CNS
ACHN renal = system: ACHN renal

Structure (SMILES) | TGI (A549 NSCLC) | TGI (COLO 205 colon) | TGI (HT29 colon) | TGI (NCI-H460 lung) | TGI (NCI-H522 lung) | TGI (OVCAR-5 ovarian) | TGI (SK-OV-3 ovarian) | TGI (SNB-19 CNS) | TGI (SNB-78 CNS) | TGI (U251 CNS) | TGI (ACHN renal) | GI50 (A549 NSCLC) | GI50 (ACHN renal) | GI50 (COLO 205 colon) | GI50 (HT29 colon) | GI50 (NCI-H522 lung) | GI50 (OVCAR-5 ovarian) | GI50 (SK-OV-3 ovarian) | GI50 (SNB-19 CNS) | GI50 (U251 CNS)
CC1NC(=O)C(C)C(c2ccccc2)N(N=O)C1c1ccccc1 (configuration not stated) | > 100 µM | > 100 µM | > 100 µM | > 100 µM | > 100 µM | > 100 µM | > 79.1 µM | > 100 µM | > 100 µM | > 100 µM |  |  |  |  |  |  |  |  |  | 
O=C(CC1Sc2ccccc2NC1=O)Nc1ccccc1[N+](=O)[O-] (configuration not stated) | > 100 µM | > 100 µM | > 100 µM | > 100 µM | 32.8 µM | > 100 µM | > 100 µM | > 100 µM | > 100 µM | > 100 µM | > 100 µM |  |  |  |  |  |  |  |  | 
CO[C@](C(=O)OC[C@H]1[C@@H](COC(C)=O)[C@@H]2O[C@H]1c1cc3c(cc12)OCO3)(c1ccccc1)C(F)(F)F | 94.3 µM | 93.2 µM | > 100 µM | 49.6 µM | 17.2 µM | > 100 µM | > 100 µM | > 100 µM |  | > 100 µM |  |  |  |  |  |  |  |  |  | 
CCOC(=O)c1csc(NC(=O)CN2CCCC2)n1 | > 100 µM | > 100 µM | > 100 µM | > 100 µM |  | > 100 µM | > 100 µM | > 100 µM |  | > 100 µM | > 100 µM |  |  |  |  |  |  |  |  | 
CCCCCCOc1ccc(/C=N/Nc2cc(C)nc3ccc(Cl)cc23)cc1 | 3.73 µM | 3.04 µM | 3.09 µM |  | 3.51 µM | 3.35 µM | 3.11 µM | 3.39 µM |  | 3.43 µM | 3.08 µM | 1.93 µM | 1.71 µM | 1.58 µM | 1.59 µM | 1.79 µM | 1.92 µM | 1.7 µM | 1.88 µM | 1.9 µM
Cc1ccc(C(=O)OC(C(=O)O)C(OC(=O)c2ccc(C)cc2)C(=O)O)cc1 (configuration not stated) (tested in a mixture with another compound) | 22.3 µM | 10.5 µM | 10.2 µM | 10.3 µM | 11.4 µM | 24.6 µM | 28.2 µM | 25.6 µM | 33.8 µM | 22.2 µM |  |  |  |  |  |  |  |  |  | 
